Where “and” joins values, the source holds several entries; their conditions need not be identical. Equal entries are not always repeated. Entries after “also recorded” stand apart in the source; their conditions may differ. Where two headings read alike, the source gives them in different places.
Legend:
IL-15 signaling = assay: Whole blood assay IL-15 pSTAT5 CD3+; assay type: cell-based
CYP1A2 = CYP1A2 (Homo sapiens, UniProt P05177); assay: CYP inhibition in human liver microsomes, CYP1A2
[1] = test system: peripheral NK cell counts; assay: Peripheral NK cell counts in healthy rats; assay type: in vivo, rat
Description: The correlation of this effect with ex vivo cytokine signaling inhibition is shown in the right panel of FIG. 6. These measurements correlated well, confirming the Jak dependency of the NK cell count endpoint.
To establish the relationship between changes in NK cell counts and nonclinical efficacy, the changes in NK cell counts were compared with decreases in rat AIA disease activity per unit exposure.

MATE1 = MATE1 (Homo sapiens, UniProt Q96FL8); assay: Transporter inhibition, MATE1
Chain of MATE1 (Q96FL8 whole entry): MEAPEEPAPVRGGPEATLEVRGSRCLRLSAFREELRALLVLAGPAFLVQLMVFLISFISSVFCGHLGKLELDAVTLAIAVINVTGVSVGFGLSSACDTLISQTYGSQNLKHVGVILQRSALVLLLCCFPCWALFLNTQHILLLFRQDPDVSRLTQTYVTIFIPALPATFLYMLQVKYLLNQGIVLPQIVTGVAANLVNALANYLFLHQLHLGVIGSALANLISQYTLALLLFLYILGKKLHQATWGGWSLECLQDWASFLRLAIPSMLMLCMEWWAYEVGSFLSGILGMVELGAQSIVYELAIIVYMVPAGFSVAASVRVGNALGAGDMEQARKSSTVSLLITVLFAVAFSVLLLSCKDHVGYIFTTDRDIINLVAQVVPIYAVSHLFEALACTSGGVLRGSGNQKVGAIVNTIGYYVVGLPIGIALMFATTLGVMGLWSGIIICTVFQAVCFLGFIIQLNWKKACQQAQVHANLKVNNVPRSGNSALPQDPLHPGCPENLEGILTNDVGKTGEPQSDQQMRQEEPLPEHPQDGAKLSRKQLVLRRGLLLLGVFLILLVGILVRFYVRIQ

Pharmacokinetics in rat = assay type: in vivo; conditions: for clearance: read-out: CLp (converted); for Vd: read-out: Vss
[2] = Plasma protein binding, human; assay type: in vitro ADME
[3] = 6-month (26 weeks) GLP chronic oral toxicity study in rats; assay type: in vivo, rat; conditions: for AUC(0-t) / Cmax: po, rat 20 mg/kg/day; for AUC(0-t): read-out: AUC0-24 at NOAEL; for Cmax: read-out: Cmax at NOAEL
Procedure: The GLP-compliant studies each included 4 weeks of oral dosing followed by a 4-week recovery period in both rats and dogs followed by GLP-compliant chronic toxicity studies in rats (6 months of oral dosing) and dogs (9 months of oral dosing).
The 6-month chronic rat study was conducted at dose levels of 0, 5, 20, and 50 mg/kg/day by daily oral administration (gavage).

[4] = Human PK, multiple ascending dose Study M13-845 Substudy 1; assay type: in vivo; conditions: for AUC: human, in vivo, oral
IFN-γ = assay: Concanavalin A-induced IFN-γ in Lewis rats; assay type: in vivo; conditions: oral, 30 min prior to i.v. Con A
Procedure: The test compound is formulated in an inert vehicle (for example but not limited to 0.5% hydroxypropylmethyl cellulose (Sigma, cat #H3785)/0.02% Tween 80 (Sigma, cat #4780) in water) at the desired concentration to achieve doses in the range of 0.01-100 mg/kg. Six-week-old male Lewis rats (125 g-150 g) (Charles River Laboratories) are dosed with the compound orally, at time zero (0 min). After about 30 min the rats are injected intravenously (i.v.) with 10 mg/kg Concanavalin A (Con A, AmershamBioscience, cat #17-0450-01) dissolved in PBS (Invitrogen, cat #14190). About 4 h later, the rats are cardiac bled and their plasma is analyzed for levels of IL-2 (ELISA kit: R&D Systems cat #R2000) and IFN-γ (ELISA kit: R&D Systems cat #RIF00).
The rat concanavalin A (Con A) model was selected as the acute screening model because it provides an assessment of oral bioavailability, as well as a rapid measurement of effects on Jak1-dependent mechanisms. Intravenous injection of Con A into Lewis rats results in T cell receptor ligation and activation, leading to IL-2 release and IFN-γ induction by an autocrine mechanism. IL-2 release is Jak-independent, whereas IFN-γ induction is blocked by Jak1 inhibitors.
Plasma levels of IFN-γ and IL-2 are assessed 4 hours later in a terminal bleed.

OAT1 = OAT1 (Homo sapiens, UniProt Q4U2R8); assay: Transporter inhibition, OAT1; conditions: up to 30 μM
Chain of OAT1 (Q4U2R8 whole entry): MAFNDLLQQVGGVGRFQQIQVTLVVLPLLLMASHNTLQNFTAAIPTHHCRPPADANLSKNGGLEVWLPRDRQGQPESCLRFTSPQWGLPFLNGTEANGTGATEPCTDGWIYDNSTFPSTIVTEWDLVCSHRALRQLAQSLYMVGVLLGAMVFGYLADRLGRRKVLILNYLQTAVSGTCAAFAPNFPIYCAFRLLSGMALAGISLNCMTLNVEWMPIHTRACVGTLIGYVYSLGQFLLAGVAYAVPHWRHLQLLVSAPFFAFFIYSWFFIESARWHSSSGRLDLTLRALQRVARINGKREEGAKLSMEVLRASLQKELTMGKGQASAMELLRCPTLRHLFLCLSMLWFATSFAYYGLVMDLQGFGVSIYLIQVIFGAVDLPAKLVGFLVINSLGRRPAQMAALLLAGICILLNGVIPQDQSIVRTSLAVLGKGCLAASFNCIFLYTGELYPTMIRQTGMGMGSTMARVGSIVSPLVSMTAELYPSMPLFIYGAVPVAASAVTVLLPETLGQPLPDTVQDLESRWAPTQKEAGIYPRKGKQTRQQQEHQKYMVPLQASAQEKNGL

[5] = female, Sprague-Dawley, rat, plasma, po, 50 mg/kg/day, rat F, oral 50 mg/kg/day, Day 1, mean (SD)
[6] = male, Sprague-Dawley, rat, plasma, po, 10 mg/kg/day, rat M, oral 10 mg/kg/day, Day 1, mean (SD)
[7] = male, Sprague-Dawley, rat, plasma, po, 100 mg/kg/day, rat M, oral 100 mg/kg/day, Day 1, mean (SD)
[8] = plasma, rat, IV 0.3 mg/kg single dose
[9] = plasma, rat, IV 0.3 mg/kg single dose, mean (SD)
[10] = plasma, rat, IV 3 mg/kg single dose
[11] = plasma, rat, IV 3 mg/kg single dose, mean (SD)
[12] = rat, plasma, po, 3 mg/kg, oral 3 mg/kg single dose, mean (SD)
[13] = 12 mg BID, Day 14, mean (% CV), Western subjects, listed as Comp. 1
[14] = 24 mg BID, Day 14, mean (% CV), Western subjects, listed as Comp. 1

Chain of CYP1A2 (P05177 whole entry): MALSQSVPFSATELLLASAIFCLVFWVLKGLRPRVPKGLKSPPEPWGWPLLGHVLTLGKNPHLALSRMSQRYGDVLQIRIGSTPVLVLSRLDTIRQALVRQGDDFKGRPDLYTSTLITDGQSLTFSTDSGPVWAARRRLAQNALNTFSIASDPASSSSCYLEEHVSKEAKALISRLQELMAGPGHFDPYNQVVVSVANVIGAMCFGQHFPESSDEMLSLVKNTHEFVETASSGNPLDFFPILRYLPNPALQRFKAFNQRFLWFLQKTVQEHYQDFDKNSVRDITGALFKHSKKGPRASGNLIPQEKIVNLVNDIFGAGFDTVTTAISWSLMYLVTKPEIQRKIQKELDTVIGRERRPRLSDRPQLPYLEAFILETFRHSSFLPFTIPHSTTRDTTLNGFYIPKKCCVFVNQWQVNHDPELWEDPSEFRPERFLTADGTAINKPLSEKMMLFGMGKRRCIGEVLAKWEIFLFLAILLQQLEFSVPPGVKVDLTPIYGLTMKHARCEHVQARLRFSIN

## CC[C@@H]1CN(C(=O)NCC(F)(F)F)C[C@@H]1c1cnc2cnc3[nH]ccc3n12 [Compound 1, (3S,4R)-3-ethyl-4-(3H-imidazo[1,2-a]pyrrolo[2,3-e]pyrazin-8-yl)-N-(2,2,2-trifluoroethyl)pyrrolidine-1-carboxamide]
IL-15 signaling; read-out: IL-15 (pSTAT5, CD3+)
  IC50: 16 nM
IL-15 signaling; whole blood, read-out: IC50 IL-15 pSTAT5 CD3+
  IC50: 16 nM
CYP1A2; human liver microsomes
  time-dependent inhibition of CYP1A2: No obvious time-dependent inhibition
CYP1A2; up to 30 μM
  inhibition of CYP1A2: did not inhibit; also recorded: not an inhibitor
[1]; over the efficacious exposure range, rat
  effects on peripheral NK cell counts: less than that of Tofacitinib
[1]; over the intended clinical exposure range, on the basis of rat models
  predicted maximum decrease of NK cell counts: approximately 40%
[1]; rat
  NK Counts (exposure): 290 ng·h/mL
  NK cell count decrease at about 60% efficacy (inhibition of paw swelling): ~25%
MATE1
  IC50: 11 µM
Pharmacokinetics in rat; female, Sprague-Dawley, plasma, rat F, oral 10 mg/kg/day, Day 1, mean (SD)
  AUC: 1870 ng·h/mL
Pharmacokinetics in rat; female, Sprague-Dawley, plasma, rat F, oral 10 mg/kg/day, Day 29, mean (SD)
  AUC at 29 days: 2280 ng·h/mL
Pharmacokinetics in rat; female, Sprague-Dawley, plasma, rat F, oral 50 mg/kg/day, Day 1, mean (SD)
  AUC: 22400 ng·h/mL
Pharmacokinetics in rat; female, Sprague-Dawley, plasma, rat F, oral 50 mg/kg/day, Day 29, mean (SD)
  AUC at 29 days: 33200 ng·h/mL
Pharmacokinetics in rat; female, Sprague-Dawley, plasma, rat F, oral 100 mg/kg/day, Day 1, mean (SD)
  AUC: 54100 ng·h/mL
Pharmacokinetics in rat; female, Sprague-Dawley, plasma, rat F, oral 100 mg/kg/day, Day 29, mean (SD)
  AUC at 29 days: 63800 ng·h/mL
Pharmacokinetics in rat; female, Sprague-Dawley, plasma, rat F, oral 200 mg/kg/day, Day 1, mean (SD)
  AUC: 108000 ng·h/mL
Pharmacokinetics in rat; female, Sprague-Dawley, rat, plasma, po, 10 mg/kg/day, rat F, oral 10 mg/kg/day, Day 1, mean (SD)
  Cmax: 468 ng/mL
Pharmacokinetics in rat; female, Sprague-Dawley, rat, plasma, po, 10 mg/kg/day, rat F, oral 10 mg/kg/day, Day 29, mean (SD)
  Cmax at 29 days: 650 ng/mL
Pharmacokinetics in rat; [5]
  Cmax: 5160 ng/mL
  Tmax: 2.2 h
Pharmacokinetics in rat; female, Sprague-Dawley, rat, plasma, po, 100 mg/kg/day, rat F, oral 100 mg/kg/day, Day 1, mean (SD)
  Cmax: 13500 ng/mL
Pharmacokinetics in rat; female, Sprague-Dawley, rat, plasma, po, 200 mg/kg/day, rat F, oral 200 mg/kg/day, Day 1, mean (SD)
  Cmax: 18200 ng/mL
Pharmacokinetics in rat; male, Sprague-Dawley, plasma, rat M, oral 10 mg/kg/day, Day 1, mean (SD)
  AUC: 1390 ng·h/mL
Pharmacokinetics in rat; male, Sprague-Dawley, plasma, rat M, oral 10 mg/kg/day, Day 29, mean (SD)
  AUC at 29 days: 1490 ng·h/mL
Pharmacokinetics in rat; male, Sprague-Dawley, plasma, rat M, oral 50 mg/kg/day, Day 1, mean (SD)
  AUC: 15900 ng·h/mL
Pharmacokinetics in rat; male, Sprague-Dawley, plasma, rat M, oral 50 mg/kg/day, Day 29, mean (SD)
  AUC at 29 days: 16800 ng·h/mL
Pharmacokinetics in rat; male, Sprague-Dawley, plasma, rat M, oral 100 mg/kg/day, Day 1, mean (SD)
  AUC: 24900 ng·h/mL
Pharmacokinetics in rat; male, Sprague-Dawley, plasma, rat M, oral 100 mg/kg/day, Day 29, mean (SD)
  AUC at 29 days: 40800 ng·h/mL
Pharmacokinetics in rat; male, Sprague-Dawley, plasma, rat M, oral 200 mg/kg/day, Day 1, mean (SD)
  AUC: 50400 ng·h/mL
Pharmacokinetics in rat; [6]
  Cmax: 224 ng/mL
  Tmax: 2.2 h
Pharmacokinetics in rat; male, Sprague-Dawley, rat, plasma, po, 50 mg/kg/day, rat M, oral 50 mg/kg/day, Day 1, mean (SD)
  Cmax: 3030 ng/mL
Pharmacokinetics in rat; [7]
  Cmax: 3910 ng/mL
  Tmax: 3.2 h
Pharmacokinetics in rat; male, Sprague-Dawley, rat, plasma, po, 100 mg/kg/day, rat M, oral 100 mg/kg/day, Day 29, mean (SD)
  Tmax at 29 days: 3.2 h
Pharmacokinetics in rat; male, Sprague-Dawley, rat, plasma, po, 200 mg/kg/day, rat M, oral 200 mg/kg/day, Day 1, mean (SD)
  Cmax: 7250 ng/mL
Pharmacokinetics in rat; [8]
  half-life: 60 min
  Vd: 2.7 L/kg
Pharmacokinetics in rat; [9]
  AUC(0-inf): 80 ng·h/mL
  clearance: 63.3 mL/min/kg
Pharmacokinetics in rat; [10]
  half-life: 180 min
  Vd: 2.2 L/kg
Pharmacokinetics in rat; [11]
  AUC(0-inf): 1550 ng·h/mL
  clearance: 33.3 mL/min/kg
Pharmacokinetics in rat; plasma, rat, IV
  clearance: 33.3 to 63.3 mL/min/kg
Pharmacokinetics in rat; plasma, rat, oral 3 mg/kg single dose
  half-life: 312 min
Pharmacokinetics in rat; plasma, rat, oral 3 mg/kg single dose, mean (SD)
  AUC(0-inf): 472 ng·h/mL
Pharmacokinetics in rat; rat, IV 0.3 mg/kg single dose
  Vc: 1.8 L/kg
  Vβ: 5.7 L/kg
Pharmacokinetics in rat; rat, IV 3 mg/kg single dose
  Vc: 0.46 L/kg
  Vβ: 9.4 L/kg
Pharmacokinetics in rat; rat, oral 3 mg/kg single dose, mean (SD), 3 mg/kg
  F: 30.5% and 30.5 (11.8) %
Pharmacokinetics in rat; [12]
  Cmax: 95 ng/mL
  Tmax: 2.2 h
[2]
  fraction unbound: 0.53
[3]; female, in vivo, females
  AUC(0-t): 6840 ng·h/mL
  Cmax: 2240 ng/mL
[3]; in vivo, rat, 6 months (26 weeks) oral gavage
  NOAEL at 6 months: 20 mg/kg/day
[3]; male, in vivo, males
  AUC(0-t): 3830 ng·h/mL
  Cmax: 1110 ng/mL
[3]; rat, 26 weeks, 50 mg/kg/day
  Adverse Findings: 50: Kidneys-tubular
[4]; 3 mg BID, Day 1
  AUC12/dose: 25.1 ng·h/mL/mg
  C12/dose: 0.32 ng/mL/mg
  Cmax/dose: 6.33 ng/mL/mg
[4]; 3 mg BID, Day 14
  AUC12/dose: 26.1 ng·h/mL/mg
  Cmax/dose: 6.16 ng/mL/mg
  Fe %, unchanged drug recovered in urine: 18.8%
[4]; 6 mg BID, Day 1
  AUC12/dose: 22.3 ng·h/mL/mg
  C12/dose: 0.30 ng/mL/mg
  Cmax/dose: 4.91 ng/mL/mg
[4]; 6 mg BID, Day 14
  AUC12/dose: 23.1 ng·h/mL/mg
  Cmax/dose: 4.80 ng/mL/mg
  Fe %, unchanged drug recovered in urine: 18.7%
[4]; 12 mg BID, Day 1
  AUC12/dose: 22.5 ng·h/mL/mg
  C12/dose: 0.33 ng/mL/mg
  Cmax/dose: 4.84 ng/mL/mg
[4]; 12 mg BID, Day 14
  Fe %, unchanged drug recovered in urine: 21.4%
[4]; [13]
  AUC12/dose: 22.6 ng·h/mL/mg
  Cmax/dose: 4.80 ng/mL/mg
[4]; 24 mg BID, Day 1
  AUC12/dose: 22.5 ng·h/mL/mg
  C12/dose: 0.32 ng/mL/mg
  Cmax/dose: 5.25 ng/mL/mg
[4]; 24 mg BID, Day 14
  Fe %, unchanged drug recovered in urine: 18.7%
[4]; [14]
  AUC12/dose: 22.0 ng·h/mL/mg
  Cmax/dose: 4.95 ng/mL/mg
[4]; 3 mg, 3 mg BID, Day 1, mean, read-out: AUC12
  AUC: 75.3 ng·h/mL
[4]; 3 mg, 3 mg BID, Day 14, mean, read-out: AUC12
  AUC: 78.3 ng·h/mL
[4]; 6 mg, 6 mg BID, Day 14, mean, read-out: AUC12
  AUC: 138 ng·h/mL
[4]; 6 mg, AUC12, 6 mg BID, Day 1, mean, heading: AUC12
  AUC: 134 ng·h/mL
[4]; 12 mg, 12 mg BID, Day 1, mean, read-out: AUC12
  AUC: 270 ng·h/mL
[4]; 12 mg, 12 mg BID, Day 14, mean, read-out: AUC12
  AUC: 271 ng·h/mL
[4]; 24 mg, 24 mg BID, Day 1, mean, read-out: AUC12
  AUC: 540 ng·h/mL
[4]; 24 mg, 24 mg BID, Day 14, mean, read-out: AUC12
  AUC: 529 ng·h/mL
IFN-γ; Rattus norvegicus, read-out: ED50, inhibition of IFN-γ release
  ED50: 0.4 mg/kg
IFN-γ
  ED80, inhibition of IFN-γ release: 5.8 mg/kg
OAT1
  inhibition of OAT1 uptake: No significant inhibition
